In patent EP0445156B1, “AGENTS FOR TREATING CHRONIC INFLAMMATORY DISEASES OF THE INTESTINES” (HENNING BERLIN GmbH CHEMIE- UND PHARMAWERK, priority 1988, dated 1990):
Converted amounts (≈) assume the structure as drawn. Read-outs that look alike come from different tables or passages of the source.

Tests used:
Solubility = format: physicochemical; conditions: read-out: Löslichkeit
Experimental: (§1) Bei diesem Natrium-Salz handelt es sich um Mono-Natriumoxipurinol-Monohydrat. Das Salz ist weiß und kristallisiert in feinen Nadeln. In wäßriger Lösung reagiert es alkalisch, eine 5%ige Lösung besitzt einen pH-Wert von 9,7. Seine Löslichkeit beträgt: in Wasser bei 25°C 15,8 g/l 0°C 7,2 g/l in Methanol/Wasser (3:1 Vol.) bei 25°C ca. 2,0 g/l

[1] = Stability of the solid salt (air, drying temperature); format: physicochemical
Experimental: Das Salz ist luftbeständig und verträgt Trockentemperaturen bis etwa 70°C. Aus seiner heißen Lösung läßt sich mit verdünnter Salzsäure (10%ig) Oxipurinol fast quantitativ ausfällen.

[2] = tested on: durch TNB (Trinitrobenzoesulfonsäure) ausgelösten Colitis der Ratte; assay: Biochemical proof of the anti-inflammatory effect in TNB-induced colitis of the rat (purine nucleotides, TBA-RS in gut samples); format: in vivo; conditions: 21. Tag, 5 mg oral every 8 h, day 3-21
Experimental: (§2) Bei 10 Ratten (Körpermaße: 200-250 g) wurde durch rektale Instillation von 25 mg TNB (in 0,25 ml 30%iger ethanolischer Lösung) eine Colitis ausgelöst. Eine in gleicher Weise behandelte Gruppe von 10 Tieren erhielt vom 3. - 21. Tage nach der TNB-Gabe im Abstand von 8 Stunden 5 mg Oxipurinol-Na, das in 0,5 ml Glucoselösung aufgelöst war, oral über eine Schlundsonde verabreicht. Eine weitere Gruppe von 10 Tieren erhielt lediglich 0,25 ml der 30%igen Ethanollösung rektal instilliert, und weitere 10 Tiere dienten als Kontrolle.
Bei den im Beispiel 13 charakterisierten Tiergruppen wurden am 21. Tag Darmproben auf den Gehalt an Purinnukleotiden und Lipidperoxydationsprodukten (Thiobarbitursäure-reaktive Substanzen: TBA-RS) hin untersucht.
Die nach TNB-Applikation erhöhte Konzentration von TBA-RS wird durch Oxipurinol-Na-Zugabe auf46 % gesenkt und liegt damit sogar noch unter den Kontrollwerten. Danach verhindert Oxipurinol-Na den durch TNB ausgelösten Abfall der Adenin-'und Guaninnukleotide und die gesteigerte Lipidperoxydation.

pH of aqueous solution = format: physicochemical; conditions: 5%ige wäßrige Lösung
From the text: Aus der DE-OS 37 07 999 ist bekannt, Oxipurinol zur Verminderung von Zellschäden nach der Ischämie und vor der Reperfusion zu verwenden, und zwar durch intravenöse Verabreichung eines Alkalimetallsalzes, insbesondere des Natriumsalzes. Aus den Beispielen geht jedoch hervor, daß nicht das reine Natriumsalz verwendet wurde, sondern ein Gemisch aus Salz und überschüssiger Natronlauge. Dies ergibt sich vor allem aus den pH-werten der ca. 1 bis 2%-igen Lösungen von 11,5 bzw. 12,0. Das jetzt erstmals von der Anmelderin in reiner und kristalliner Form hergestellte Natriumsalz besitzt in 5%-iger wäßriger Lösung einen pH-wert von 9,7 und kristallisiert als Monohydrat aus.
as §1

[3] = tested on: durch TNB (Trinitrobenzoesulfonsäure) ausgelösten Colitis der Ratte; assay: Histological proof of the anti-inflammatory effect in TNB-induced colitis of the rat; format: in vivo; conditions: 25 mg TNB rektal, 5 mg oral über Schlundsonde im Abstand von 8 Stunden, 3. - 21. Tag, TNB alone: Grad II - III
Experimental: as §2
Der Darm (Rectum) der mit TNB behandelten Tiere zeigte eine chronisch-rezidivierende Colitis Grad II - III. Bei einigen Tieren wurden inkomplette Erosionen, insbesondere in den über den Lymphfollikeln gelegenen Stellen des Oberflächenepithels, sehr dichte Infiltrate in der Submukosa und reichlich perivaskulär gelegene Mastzellen im umgebenden Fettgewebe, beobachtet. Die mit TNB und Oxipurinol-Na behandelten Tiere zeigten deutlich geringer ausgeprägte Entzündungemerkmale (Grad I): eine geringfügige Vermehrung von Lymphozyten und Mastzellen sowie ein geringes Ödem.

[4] = general statement, no solvent or temperature given; cited from earlier work

solubility (Solubility; methanol/water (3:1 vol.), organic solvent or mixture, in Methanol/Wasser (3:1 Vol.) bei 25°C) | solubility (Solubility; water, in Wasser bei 0°C) | solubility (Solubility; water, in Wasser bei 25°C) | Luftbeständigkeit [1] | verträgt Trockentemperaturen ([1]; drying) | pH-Wert (pH of aqueous solution) | SMILES | Gehalte an Adenin- und Guaninnukleotiden (Darmproben) versus Ethanol- und Kontrollgruppe [2] | Entzündungsmerkmale / Colitis Grad (Rectum, histologisch) [3] | Löslichkeit (in words) [4]
~2000 µg/mL (≈ 13.1 mM) | 7200 µg/mL (≈ 47.3 mM) | 15800 µg/mL (≈ 104 mM) | luftbeständig | ≤ 70 °C | 9,7 | O=c1[nH]c(=O)c2cn[nH]c2[nH]1 [Oxipurinol-Natrium, Mono-Natriumoxipurinol-Monohydrat] | unterschieden sich nicht signifikant | Grad I | –
– | – | – | – | – | – | O=c1[nH]c(=O)c2c[nH]nc2[nH]1 [Oxipurinol] | – | – | sehr schwer löslich
